Experiment [1] has as its target T1, human E3 ligase component cereblon (CRBN) (Homo sapiens, UniProt Q96SW2).
T1 construct: host or cells: HEK293T
Kind of experiment: Cereblon (CRBN) target engagement, NanoBRET TE Intracellular E3 Ligase Assay in transfected HEK-293T cells. The conditions noted are these: read-out: CRBN Binding EC50. How it is done: HEK293T cells were harvested ca. 75% confluent with trypsin and plated (500,000 cells/well) in a 6-well tissue culture plate in 2 mL of Dulbecco's Modified Eagle Medium (DMEM)^+10% Fetal Bovine Serum (FBS) and incubated overnight at 37° C.
The NanoLuc-CRBN fusion vector (Nluc-CRBN; Promega) contains the coding region of human E3 ligase component cereblon (CRBN) fused to the C-terminus of the NanoLuc luciferase coding region. A mixture of 10 ng Nluc-CRBN and 990 ng DDB1 Expression Vector (Promega) was added to 125 μL Opti-Minimum Essential Medium (Opti-MEM™; Thermo Fisher) along with […] P3000 reagent (Thermo Fisher) in a 1.5 mL epppendorf tube. This solution was added to Lipofectamine 3000 transfection reagent (5 μL; Thermo Fisher) in Opti-MEM (125 μL), mixed well, and incubated for 15 minutes at room temperature. The transfection mixture was added dropwise to cells and incubated overnight at 37° C., 5% CO2. Following transfection, cells were washed once with PBS, and trypsin (250 μL) was added and incubated 30-45 see to dislodge cells. Complete media (2 mL) was added to resuspend cells to form a single cell suspension. Cells were centrifuged at 320×g for 5 min at room temperature, the supernatant was removed, and the cell pellet resuspended in Opti-MEM (3 mL; wash step repeated ×2). After final resuspension in 5 mL Opti-MEM, cells were counted and resuspended at 200,000 cells/mL in Opti-MEM.
Cereblon target engagement was monitored by Bioluminescence Resonance Energy Transfer (BRET) in transfected HEK-293T cells using the NanoBRET TE Intracellular E3 Ligase Assay (Promega). Briefly, 384-well plates (white opaque plates, Corning 3574, low binding surface) were seeded with transfected HEK-293T cells (38 μL/well). 2 μL of 10 μM CRBN tracer (diluted 1:5 in Tracer Dilution Buffer) was added to each well. Plates were centrifuged at 320×g for 1 min at room temperature. Test compounds were added in a 11-point dilution series (typically 10 μM to 100 pM) using a TECAN D300e Digital Dispenser. Plates were shaken for 2 minutes on a microplate shaker to mix compounds. Plates were centrifuged at 320×g for 1 min at room temperature, and subsequently incubated for 2 hours at 37° C.
After incubation, plates were allowed to cool to room temperature for 15 minutes. 20 μL of 3× Complete NanoBRET™ Nano-Glo® Substrate plus Inhibitor Solution (Promega, 1:166 Substrate and 1:500 dilution of Extracellular NanoLuc® Inhibitor diluted in Opti-MEM) were added to each well. Plates were incubated with shaking at room temperature for 3 minutes covered with foil. Plates were read on a CLARIOstar microplate reader (BMG LabTech), measuring at 450 nm (donor emission) and 610 nm (acceptor emission). The IC50 values were determined by regression to best fit four-parameter logistic curves using GraphPad Prism.
For orientation: BRET reads energy transfer from a luciferase to a nearby fluorophore.

The next experiment concerns the target T2, IKZF2 (Helios) (Homo sapiens, UniProt Q9UKS7).
T2 construct: Leu-Asp junction (codons ctcgac before the linker); mScarlet (behind P2A) (C, cleaved yes); expressed in transfected cells
Description: IKZF2 reporter degradation assay (HEK 293T IKZF2-mNeonGreen reporter cell line). The conditions noted are these: HEK 293T IKZF2-mNeonGreen reporter, 24 hours incubation. It is filed as cell-based. The source says: Polycistronic plasmids were constructed for the mammalian expression of fluorescent reporter fusions of human transcription factors IKZF1 (Ikaros), IKZF2 (Helios), and IKZF3 (Aiolos). The respective protein sequences had their C-terminal end joined to a GGGGS linker repeated three times followed by mNeonGreen, P2A sequence, and mScarlet. The DNA sequences of the open reading frames are as follows:
IKZF1, IKZF2, and IKZF3 constructs were cloned into the UCOE Hygromycin expression vectors (Millipore Sigma). Reporter constructs were transfected using cationic lipid reagents into adherent HEK 293T cells and stable integrants were selected by treatment with 200 μg/mL hygromycin B. Clonal populations were obtained from the population of stable integrants either by limiting dilution or fluorescence activated cell sorting.
The clonal stable cell lines were maintained under constant 200 μg/mL hygromycin B selection while being passaged for use in the degradation assays. […] The fluorescence intensity of the IKZF1/2/3-mNeonGreen (FITC channel) and mScarlet (PE channel) reporters were routinely analyzed by flow cytometry to confirm consistent expression levels between experiments.
The IKZF1/IKZF2/IKZF3 degradation assays were carried out by harvesting the HEK 293T reporter cell lines and resuspending the cells in media formulated for reduced background fluorescence (FluoroBrite; Thermo Fisher). The respective cell lines were seeded at a density of 4000 cells/well into black-walled 384-well optical grade assay tissue culture plates. The cells were incubated overnight at 37° C. to allow for attachment to the assay plate. Dilutions of the compounds were prepared in DMSO from 10 mM compound stocks. The assay plates were treated with appropriate concentrations of the compounds by dispensing the DMSO dilutions in quadruplicate wells with an upper limit of 0.5% final DMSO.
After 24 hours incubation with the compounds, the assay plates were imaged on an ImageXpress Pico microscopy system (cells maintained at 37° C. during imaging) to obtain the fluorescent readouts. The assay plates were imaged in the FITC and Tetramethylrhodamine (TRITC) channels to obtain the mNeonGreen fluorescence intensity (reporter degradation data) and mScarlet fluorescence intensity (for cell segmentation). 293T-IKZF1 and 293T-IKZF3 reporter cell lines were imaged with exposures of 500 milliseconds (ms) for both FITC and TRITC channels, while the 293T-IKZF2 reporter cell line was imaged with exposures of 1000 ms for FITC and 1250 ms for TRITC. The resulting data was analyzed with Cell Reporter Xpress software using the 2-channel cell scoring analysis with a “percent positive” readout. The TRITC channel was selected for the “nuclei” segmentation with a threshold of 20 while the FITC channel was selected for the “Marker 1” segmentation and a threshold of 100 for the IKZF1 and IKZF3 reporter lines. […] The minimum segmentation width was set to 6 micrometers and the maximum segmentation width was set to 15 micrometers for all cell lines. The DC50 calculations were determined by regression to best fit four-parameter logistic curves using GraphPad Prism.

T2 sequence (Q9UKS7 whole entry): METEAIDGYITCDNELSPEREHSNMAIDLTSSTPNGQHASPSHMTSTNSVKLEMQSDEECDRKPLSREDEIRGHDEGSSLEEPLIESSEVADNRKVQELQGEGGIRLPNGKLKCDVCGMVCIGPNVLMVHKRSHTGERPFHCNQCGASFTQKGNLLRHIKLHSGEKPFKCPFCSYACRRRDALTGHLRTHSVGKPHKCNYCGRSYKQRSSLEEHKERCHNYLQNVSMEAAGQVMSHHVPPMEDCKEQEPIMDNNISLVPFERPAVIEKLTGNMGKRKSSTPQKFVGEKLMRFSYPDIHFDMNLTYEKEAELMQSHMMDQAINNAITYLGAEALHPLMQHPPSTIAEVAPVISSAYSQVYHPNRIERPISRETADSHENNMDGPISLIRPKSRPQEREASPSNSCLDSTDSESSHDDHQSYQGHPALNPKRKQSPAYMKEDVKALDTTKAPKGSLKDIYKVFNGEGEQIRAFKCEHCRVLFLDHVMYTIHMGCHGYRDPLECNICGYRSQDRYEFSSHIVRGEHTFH
T2 sequence (Q96SW2 whole entry, further chain): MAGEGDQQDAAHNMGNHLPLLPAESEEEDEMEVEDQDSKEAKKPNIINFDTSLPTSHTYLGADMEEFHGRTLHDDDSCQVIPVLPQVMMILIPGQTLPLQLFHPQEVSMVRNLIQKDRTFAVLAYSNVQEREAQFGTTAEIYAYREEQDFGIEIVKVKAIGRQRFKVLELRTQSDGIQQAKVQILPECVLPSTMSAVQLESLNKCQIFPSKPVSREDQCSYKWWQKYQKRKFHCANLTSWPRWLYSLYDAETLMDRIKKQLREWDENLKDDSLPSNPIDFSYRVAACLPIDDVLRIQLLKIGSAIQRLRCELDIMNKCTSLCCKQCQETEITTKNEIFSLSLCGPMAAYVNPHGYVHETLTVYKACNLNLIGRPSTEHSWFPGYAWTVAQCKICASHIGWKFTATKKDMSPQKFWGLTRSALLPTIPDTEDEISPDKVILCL
T2 sequence (Q16531 whole entry partner): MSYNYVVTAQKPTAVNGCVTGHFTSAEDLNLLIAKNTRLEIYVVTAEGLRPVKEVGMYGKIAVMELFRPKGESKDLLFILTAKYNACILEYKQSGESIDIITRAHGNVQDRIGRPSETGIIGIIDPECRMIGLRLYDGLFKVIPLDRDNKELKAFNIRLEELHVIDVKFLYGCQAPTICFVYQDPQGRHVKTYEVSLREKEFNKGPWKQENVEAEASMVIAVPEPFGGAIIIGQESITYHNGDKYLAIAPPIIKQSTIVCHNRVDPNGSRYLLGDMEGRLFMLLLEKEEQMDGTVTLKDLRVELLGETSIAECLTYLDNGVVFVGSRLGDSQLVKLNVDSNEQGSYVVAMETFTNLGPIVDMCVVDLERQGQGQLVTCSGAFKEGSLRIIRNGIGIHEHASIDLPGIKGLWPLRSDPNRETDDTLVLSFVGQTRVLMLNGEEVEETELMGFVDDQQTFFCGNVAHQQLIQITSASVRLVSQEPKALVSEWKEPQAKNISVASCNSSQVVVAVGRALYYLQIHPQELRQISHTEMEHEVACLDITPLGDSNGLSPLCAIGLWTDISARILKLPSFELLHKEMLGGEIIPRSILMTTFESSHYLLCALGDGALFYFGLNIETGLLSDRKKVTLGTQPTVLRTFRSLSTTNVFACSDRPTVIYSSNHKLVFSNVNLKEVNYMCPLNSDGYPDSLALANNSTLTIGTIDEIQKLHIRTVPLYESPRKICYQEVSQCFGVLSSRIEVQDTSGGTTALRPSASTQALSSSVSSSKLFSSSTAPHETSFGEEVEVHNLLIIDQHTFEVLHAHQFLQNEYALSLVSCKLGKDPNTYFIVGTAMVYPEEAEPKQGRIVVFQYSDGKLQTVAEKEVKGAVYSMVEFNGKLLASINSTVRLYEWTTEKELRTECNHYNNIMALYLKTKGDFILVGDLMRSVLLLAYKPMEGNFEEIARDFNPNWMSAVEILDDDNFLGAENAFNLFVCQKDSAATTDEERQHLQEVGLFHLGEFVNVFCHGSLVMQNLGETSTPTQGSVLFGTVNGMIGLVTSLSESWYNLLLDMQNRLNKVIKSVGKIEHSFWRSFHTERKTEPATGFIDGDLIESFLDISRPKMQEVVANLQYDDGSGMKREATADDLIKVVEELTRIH
T1 sequence (Q96SW2 whole entry): as the sequence (Q96SW2 whole entry, further chain) above
T1 sequence (Q16531 whole entry partner): as the sequence (Q16531 whole entry partner) above

Usually EC50 stands for the midpoint of the concentration-response curve. One may read the DC50 as the concentration giving 50% degradation. Lower therefore signals a more potent degrader. For `O=C1CCC(N2Cc3cc(O[C@H]4CCCC[C@@H]4N4CC(c5ncc(Br)cn5)C4)ccc3C2=O)C(=O)N1` (single isomer, unassigned) [Compound 107-B], in experiment [1], the EC50 was 22 nM. On IKZF2 (Helios), this compound showed a DC50 of over 30000 nM.
For `O=C1CCC(N2Cc3cc(O[C@@H]4CCCC[C@H]4N4CC(c5ncc(C6CC6)cn5)C4)ccc3C2=O)C(=O)N1` (single isomer, unassigned) [Compound 133-B] the same measures were 10 nM and over 30000 nM.
As to `O=C1NC(=O)C2(N3Cc4cc(O[C@H]5CCCC[C@@H]5N5CC(c6ccncc6)C5)ccc4C3=O)CC1C2` (racemic) [Compound 160-B, Rac-1-(1-oxo-5-(((trans)-2-(3-(pyridin-4-yl)azetidin-1-yl)cyclohexyl)oxy)isoindolin-2-yl)-3-azabicyclo[3.1.1]heptane-2,4-dione], in experiment [1], the EC50 was over 10000 nM.
Turning to `O=C1CCC(N2Cc3cc(O[C@@H]4CCCC[C@@H]4N4CC(c5cncc(Cl)c5)C4)ccc3C2=O)C(=O)N1` (stereo partly drawn) [Compound 105-B, 3-(5-(((1R,2S)-2-(3-(5-chloropyridin-3-yl)azetidin-1-yl)cyclohexyl)oxy)-1-oxoisoindolin-2-yl)piperidine-2,6-dione], in experiment [1], the EC50 came to 29 nM. This compound also returned a DC50 on IKZF2 (Helios) of over 30000 nM.
For the compound `Cc1cnc(C2CN([C@H]3CCCC[C@@H]3Oc3ccc4c(c3)CN(C35CC(C3)C(=O)NC5=O)C4=O)C2)o1` (racemic) [Compound 150-B, Rac-1-(5-(((trans)-2-(3-(5-methyloxazol-2-yl)azetidin-1-yl)cyclohexyl)oxy)-1-oxoisoindolin-2-yl)-3-azabicyclo[3.1.1]heptane-2,4-dione], in experiment [1], the EC50 was over 10000 nM.
With `O=C1CCC(N2Cc3cc(O[C@@H]4CCCC[C@@H]4N4CC(c5ccncc5F)C4)ccc3C2=O)C(=O)N1` (single isomer, unassigned) [Compound 104-B], the half-maximal effective concentration (EC50) in experiment [1] turned out to be 38 nM. Moreover, at IKZF2 (Helios), the DC50 is over 30000 nM.
Take `O=C1CCC(N2Cc3cc(OC4CCCC4N4CC(c5ncc(F)cn5)C4)ccc3C2=O)C(=O)N1` (centres unmarked) [Compound 158-B, 3-(5-((2-(3-(5-fluoropyrimidin-2-yl)azetidin-1-yl)cyclopentyl)oxy)-1-oxoisoindolin-2-yl)piperidine-2,6-dione]: the 50% effective concentration (EC50) in experiment [1] was 88 nM.
For the compound `O=C1CCC(N2Cc3cc(O[C@@H]4CCCC[C@@H]4N4CC(c5ccncc5Cl)C4)ccc3C2=O)C(=O)N1` (single isomer, unassigned) [Compound 96-B], in experiment [1], the EC50 was 30 nM. In addition, the half-maximal degradation concentration (DC50) on IKZF2 (Helios) is over 30000 nM.
For the compound `Cc1cnc(C2CN([C@H]3CCCC[C@H]3Oc3ccc4c(c3)CN(C35CC(C3)C(=O)NC5=O)C4=O)C2)o1` (racemic) [Compound 149-B, Rac-1-(5-(((cis)-2-(3-(5-methyloxazol-2-yl)azetidin-1-yl)cyclohexyl)oxy)-1-oxoisoindolin-2-yl)-3-azabicyclo[3.1.1]heptane-2,4-dione], the concentration for a half-maximal effect (EC50) in experiment [1] was over 10000 nM.
Same read-out and setting: as for `O=C1NC(=O)C2(N3Cc4cc(OC5CCC[C@@H]5N5CC(c6ncc(Cl)cn6)C5)ccc4C3=O)CC1C2` (mixture of isomers) [Compound 157-B, Rac-1-(5-(((trans)-2-(3-(5-chloropyrimidin-2-yl)azetidin-1-yl)cyclopentyl)oxy)-1-oxoisoindolin-2-yl)-3-azabicyclo[3.1.1]heptane-2,4-dione], the figure is over 10000 nM.
Turning to `O=C1NC(=O)C2(N3Cc4cc(O[C@@H]5CCCC[C@@H]5N5CC(c6ccncc6)C5)ccc4C3=O)CC1C2` (racemic) [Compound 159-B, Rac-1-(1-oxo-5-(((cis)-2-(3-(pyridin-4-yl)azetidin-1-yl)cyclohexyl)oxy)isoindolin-2-yl)-3-azabicyclo[3.1.1]heptane-2,4-dione], the concentration for a half-maximal effect (EC50) in experiment [1] is over 10000 nM.
Consider `O=C1CCC(N2Cc3cc(O[C@@H]4CCCC[C@@H]4N4CC(c5ncc(C(F)(F)F)cn5)C4)ccc3C2=O)C(=O)N1` (single isomer, unassigned) [Compound 118-B], for which the 50% effective concentration (EC50) in experiment [1] is 4 nM. At IKZF2 (Helios), this compound had a DC50 of over 30000 nM.
For `O=C1CCC(N2Cc3cc(O[C@@H]4CCCC[C@@H]4N4CC(c5ncncc5Cl)C4)ccc3C2=O)C(=O)N1` (single isomer, unassigned) [Compound 94-B] the same measures were 29 nM and over 30000 nM.
With `O=C1NC(=O)C2(N3Cc4cc(OC5CCC[C@@H]5N5CC(c6ncc(Cl)cn6)C5)ccc4C3=O)CC1C2` (mixture of isomers) [Compound 156-B, Rac-1-(5-(((cis)-2-(3-(5-chloropyrimidin-2-yl)azetidin-1-yl)cyclopentyl)oxy)-1-oxoisoindolin-2-yl)-3-azabicyclo[3.1.1]heptane-2,4-dione], the 50% effective concentration (EC50) in experiment [1] is over 10000 nM.
Turning to `O=C1CCC(N2Cc3cc(O[C@H]4CCCC[C@H]4N4CC(c5ncc(C(F)(F)F)cn5)C4)ccc3C2=O)C(=O)N1` (single isomer, unassigned) [Compound 121-B], the 50% effective concentration (EC50) in experiment [1] amounted to 5 nM. At IKZF2 (Helios), this compound displayed a DC50 of over 30000 nM.
Turning to `O=C1CCC(N2Cc3cc(O[C@@H]4CCCC[C@@H]4N4CC(c5ncc(C(F)(F)F)cn5)C4)ccc3C2=O)C(=O)N1` (single isomer, unassigned) [Compound 119-B], the half-maximal effective concentration (EC50) in experiment [1] came to 24 nM. Moreover, the half-maximal degradation concentration (DC50) at IKZF2 (Helios) was over 30000 nM.
In the same order, the values of `O=C1CCC(N2Cc3cc(O[C@@H]4CCCC[C@H]4N4CC(c5ncc(Cl)cn5)C4)ccc3C2=O)C(=O)N1` (single isomer, unassigned) [Compound 109-B] are 9 nM and over 30000 nM.
Take `Cc1cnc(C2CN([C@H]3CCCC3Oc3ccc4c(c3)CN(C35CC(C3)C(=O)NC5=O)C4=O)C2)o1` (mixture of isomers) [Compound 145-B, Rac-1-(5-(((trans)-2-(3-(5-methyloxazol-2-yl)azetidin-1-yl)cyclopentyl)oxy)-1-oxoisoindolin-2-y1)-3-azabicyclo[3.1.1]heptane-2,4-dione]: the half-maximal effective concentration (EC50) in experiment [1] was over 10000 nM.
As for `Cc1cnc(C2CN([C@H]3CCCC3Oc3ccc4c(c3)CN(C35CC(C3)C(=O)NC5=O)C4=O)C2)o1` (mixture of isomers) [Compound 144-B, Rac-1-(5-(((cis)-2-(3-(5-methyloxazol-2-yl)azetidin-1-yl)cyclopentyl)oxy)-1-oxoisoindolin-2-yl)-3-azabicyclo[3.1.1]heptane-2,4-dione], in experiment [1], the EC50 was over 10000 nM.

These data come from patent US20250100996A1, “HETEROCYCLOALKYL AND HETEROARYL COMPOUNDS AND PHARMACEUTICAL COMPOSITIONS THAT MODULATE IKZF2” (Plexium, Inc., priority 2021, published 2025).
